Source: US20130231472A1, “USE OF MOLECULAR MARKERS FOR THE PRECLINICAL PROFILING OF INHIBITORS OF ENZYMES HAVING HISTONE DEACETYLASE ACTIVITY” (priority 2002, published 2013)
Square brackets hold non-standard residues; d marks the D form. Peptide text beside a SMILES is read from it. * marks the point of attachment. Aoe = N[C@@H](CCCCCC(=O)[C@@H]1CO1)C(=O)O; Sta = CC(C)C[C@H](N)[C@@H](O)CC(=O)O; Isovaleryl = CC(C)CC(=O)*; Nle = CCCC[C@H](N)C(=O)O; Cbz = O=C(OCc1ccccc1)*

How the values were obtained:
[1] = system: HDAC-2; assay: HDAC-2 protein levels in HEK293T cells (Westernblot); format: cell-based, human; details: for effect of protease inhibitor on control or VPA-repressed HDAC-2 protein levels: 24 h with or without VPA, FIG. 9A; for effect of proteasome inhibitor on VPA-induced degradation of HDAC-2: co-treatment with VPA, inhibitor added 4 h before harvest, FIG. 9B
Method: (§1) FIG. 6: (A) F9 teratocarcinoma or HEK293T embryonic kidney cells were exposed for indicated times to 1 mM VPA. Protein levels of HDAC-2 and HDACs 1 or 3 for reference (HDAC8; N-CoR and Sin3 as data not shown) were determined by Westernblot analysis. […] (C) The effect of other HDAC inhibitors on the amount of HDAC-2 protein was determined by using TSA (100 nM) in a time course analysis in F9 cells (left panel). The HDAC inhibitors TSA (100 nM), trapoxin (TPX, 10 nM), butyrate (1.5 mM) or MS275 (5 μM) were tested at a single time of exposure in HEK293T cells (right panel).
FIG. 9: (A) HEK293T cells were treated for 24 h with VPA or left untreated. The cell penetrating protease inhibitors pepstatin A, leupeptin, or ALLM were added as indicated at the time of VPA addition. (B) Proteasome inhibitors ALLN or MG-132 were added at the indicated concentrations 4 h before cells were harvested. Protein levels of HDAC-2 were determined by Westernblot analysis.

[2] = system: stage III/IV non-small cell lung cancer; details: monotherapy, phase II; cited from earlier work
[3] = system: F9 cells; assay: Toxicity in F9 cells (cell loss, actin loading control); format: cell-based, murine; details: 48 h TSA (100 nM)
Method: as §1

[4] = system: RLIM; assay: RLIM protein levels in HEK293T cells (Westernblot); format: cell-based, human; details: 24 hours
Method: FIG. 12 (A) RLIM protein levels were determined by Westernblot analysis after treatment of HEK293T cells for 24 hours with the HDAC inhibitors VPA (0.5, 1.5, or 5 mM), TSA (30, 100 or 300 nM) or a combination of VPA (1.5 mM) and TSA (100 nM). Actin protein levels are shown as a control for equal loading. (B) RLIM protein levels were determined by Westernblot analysis after treatment of HEK293T cells for 24 hours with the HDAC inhibitor TSA (100 nM), the proteasome inhibitor ALLN (2.5 μM) or a combination of both. Actin protein levels are shown as a control for equal loading.

[5] = system: HDAC-2; assay: HDAC-2 protein levels in F9 teratocarcinoma cells (Westernblot); format: cell-based, murine
Method: as §1

[6] = system: HDAC-2; assay: Ubiquitinated proteins in anti HDAC-2 immune precipitates (Westernblot against ubiquitin); format: cell-based; details: VPA 1.5 mM, 24 h; ALLN 5 μM; FIG. 10A
Description: FIG. 10: (A) The total amount of high molecular weight poly-ubiquitinated protein was not altered by VPA treatment of cells (left two lanes). The presence of ubiquitinated proteins in anti HDAC-2 immune precipitates is shown in the right part of the panel. […] Ubiquitinated proteins in the precipitates were detected by Western blot analysis. For lane N a non-immune serum was used instead of the anti HDAC-2 antibody. (B) The presence of mono- and/or oligo-ubiquitinated HDAC-2 upon VPA treatment of HEK293T cells was determined by ectopic expression of His6-tagged ubiquitin followed by VPA-treatment for 36 h as indicated. The proteasome inhibitor MG-132 was added 4 h prior to analysis to enhance the accumulation of ubiquitinated proteins. Electrophoretic mobility and unaltered presence of non-ubiquitinated HDAC-2 were determined by Westernblot analysis of whole cell extracts (left panel). […] Anti-HDAC-2 immuno-reactive bands with the expected mobility of mono- or poly-ubiquitinated HDAC-2 are indicated by a bracket.

[7] = system: T-cell lymphomas; details: phase II; cited from earlier work
[8] = system: TRAIL; assay: TRAIL expression in spleen after in vivo treatment (RNAse protection assay); design: species or system mice; details: leukemic mice; 96 hours of retinoic acid treatment (21-day-release pellet, 5 mg RA); FIG. 4A
Method: Leukemic mice or healthy mice (Ctrl) were then treated with placebo (lanes 1, 3), VPA (400 mg/kg every 12 hours), all-trans retinoic acid (a 21-day-release pellet containing 5 mg RA or placebo: lanes 8-9), and VPA plus retinoic acid (lanes 10-11). Mice were sacrificed 18 hours (lanes 4-5), or 36 hours after beginning of treatment (lanes 3, 6-7, 10-11): total RNAs were collected from the spleens (with a >75% invasion of leukemic blasts as assessed by Giemsa staining) and analyzed by RNAse protection assay to check for expression of TRAIL.

[9] = system: PML-RAR leukemia; details: one PML-RAR patient with multiple relapses after retinoic acid; cited from earlier work
[10] = system: HDACs; assay: Inhibition of HDACs; format: biochemical
[11] = target: HDAC-4
[12] = HEK293T cells, VPA 1 mM, TSA 100 nM, trapoxin 10 nM, butyrate 1.5 mM, MS275 5 μM

Sequence of HDAC-4 (P56524 whole entry): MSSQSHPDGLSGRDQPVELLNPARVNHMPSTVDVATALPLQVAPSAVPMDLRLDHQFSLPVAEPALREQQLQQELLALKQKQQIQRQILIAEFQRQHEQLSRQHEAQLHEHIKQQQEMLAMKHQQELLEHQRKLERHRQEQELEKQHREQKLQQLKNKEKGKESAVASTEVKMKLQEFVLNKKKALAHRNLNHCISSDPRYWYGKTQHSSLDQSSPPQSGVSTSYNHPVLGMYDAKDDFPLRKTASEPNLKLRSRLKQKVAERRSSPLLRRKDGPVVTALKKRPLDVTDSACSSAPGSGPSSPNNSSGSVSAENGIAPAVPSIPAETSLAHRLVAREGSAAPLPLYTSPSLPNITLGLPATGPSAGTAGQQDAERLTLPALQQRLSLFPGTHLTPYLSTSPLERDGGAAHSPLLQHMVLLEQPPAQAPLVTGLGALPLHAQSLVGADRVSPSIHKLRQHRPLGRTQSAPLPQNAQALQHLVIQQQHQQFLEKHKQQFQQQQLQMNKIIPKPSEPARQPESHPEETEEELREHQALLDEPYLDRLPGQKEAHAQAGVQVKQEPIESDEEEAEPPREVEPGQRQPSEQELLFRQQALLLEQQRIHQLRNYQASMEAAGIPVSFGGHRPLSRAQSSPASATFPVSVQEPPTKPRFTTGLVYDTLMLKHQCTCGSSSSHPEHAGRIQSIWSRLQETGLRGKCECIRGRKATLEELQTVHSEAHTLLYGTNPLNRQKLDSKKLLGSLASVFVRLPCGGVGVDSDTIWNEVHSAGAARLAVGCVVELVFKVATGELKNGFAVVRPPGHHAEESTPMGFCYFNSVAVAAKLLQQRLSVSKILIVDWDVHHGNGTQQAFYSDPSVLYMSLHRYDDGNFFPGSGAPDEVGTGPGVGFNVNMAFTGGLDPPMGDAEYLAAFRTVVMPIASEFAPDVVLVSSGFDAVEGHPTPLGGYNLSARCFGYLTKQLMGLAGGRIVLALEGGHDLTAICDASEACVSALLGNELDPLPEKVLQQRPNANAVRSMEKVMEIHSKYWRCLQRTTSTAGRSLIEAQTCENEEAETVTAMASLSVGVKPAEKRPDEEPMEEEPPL

CCCC(=O)O [Butyrate, butyric acid]
HDAC-2 protein levels [1, 12]: Reduction of HDAC-2 protein levels

CCCC(=O)OCOC(=O)C(C)(C)C [Pivanex]
clinical activity [2]: demonstrating activity in stage III/IV non-small cell lung cancer

CC(/C=C/C(=O)NO)=C\[C@@H](C)C(=O)c1ccc(N(C)C)cc1 [TSA, trichostatin A]
toxicity (cell loss, reduction in actin loading control) [3]: toxic | RLIM protein levels / degradation ([4]; VPA 0.5, 1.5 or 5 mM, TSA 30, 100 or 300 nM, FIG. 12): induce an enhanced proteosomal degradation of the E3 ligase RLIM | HDAC-2 protein levels [5]: does not reduce HDAC-2 levels | HDAC-2 protein levels [1]: does not reduce HDAC-2 levels | amount of ubiquitinated protein precipitated with antibody against HDAC-2 [6]: no effect

O=C1N[C@@H](Cc2ccccc2)C(=O)N2CCC[C@@H]2C(=O)N[C@@H](CCCCCC(=O)[C@@H]2CO2)C(=O)N[C@H]1Cc1ccccc1 [trapoxin] (cyclo(FF[dP][Aoe]))
HDAC-2 protein levels [1, 12]: Neither the cyclic tetrapeptide HDAC inhibitor trapoxin nor the anilide-based HDAC inhibitor MS-275 induces reduction of HDAC-2 protein levels

MS-275
HDAC-2 protein levels [1, 12]: Neither the cyclic tetrapeptide HDAC inhibitor trapoxin nor the anilide-based HDAC inhibitor MS-275 induces reduction of HDAC-2 protein levels

C/C=C1\NC(=O)[C@H]2CSSCC/C=C/[C@H](CC(=O)N[C@H](C(C)C)C(=O)N2)OC(=O)[C@H](C(C)C)NC1=O [depsipeptide]
clinical outcome [7]: used successfully

CC(=O)N[C@@H](CC(C)C)C(=O)N[C@@H](CC(C)C)C(=O)N[C@H](C=O)CCCNC(=N)N [leupeptin]
effect of protease inhibitor on control or VPA-repressed HDAC-2 protein levels ([1]; HEK293T cells): Neither of the protease inhibitors pepstatin A, leupeptin or ALLM had an effect

CC(C)C[C@@H](C=O)NC(=O)[C@H](CC(C)C)NC(=O)[C@H](CC(C)C)NC(=O)OCc1ccccc1 [MG-132] (Cbz-Leu-Leu-Leu-aldehyde)
effect of proteasome inhibitor on VPA-induced degradation of HDAC-2 ([1]; HEK293T cells): abolished VPA-induces degradation of HDAC-2 completely

CC1=C(/C=C/C(C)=C/C=C/C(C)=C/C(=O)O)C(C)(C)CCC1 [retinoic acid, all-trans retinoic acid]
TRAIL expression in spleen [8]: as strongly as upon 96 hours of retinoic acid treatment

CSCC[C@@H](C=O)NC(=O)[C@H](CC(C)C)NC(=O)[C@H](CC(C)C)NC(C)=O [ALLM] (Ac-Leu-Leu-Met-aldehyde)
effect of protease inhibitor on control or VPA-repressed HDAC-2 protein levels ([1]; HEK293T cells): Neither of the protease inhibitors pepstatin A, leupeptin or ALLM had an effect

phenylbutyrate
clinical response of leukemia [9]: complete remission of the leukemia

CCCC(CCC)C(N)=O [valpromide]
HDAC inhibition [10]: does not inhibit HDACs | HDAC-2 protein levels ([1]; cell line and concentration not stated): does not affect HDAC-2 protein levels

CCCC[C@@H](C=O)NC(=O)[C@H](CC(C)C)NC(=O)[C@H](CC(C)C)NC(C)=O [ALLN] (Ac-Leu-Leu-[Nle]-aldehyde)
block of TSA-induced proteosomal degradation of RLIM ([4]; TSA 100 nM plus ALLN 2.5 μM, FIG. 12B): can be blocked | effect of proteasome inhibitor on VPA-induced degradation of HDAC-2 ([1]; HEK293T cells): abolished VPA-induces degradation of HDAC-2 completely | amount of ubiquitinated protein precipitated with antibody against HDAC-2 [6]: increase the amount of this anti-ubiquitin reactive protein

CC(C)CC(=O)N[C@H](C(=O)N[C@H](C(=O)N[C@@H](CC(C)C)[C@@H](O)CC(=O)N[C@@H](C)C(=O)N[C@@H](CC(C)C)[C@@H](O)CC(=O)O)C(C)C)C(C)C [pepstatin A] (Isovaleryl-VV[Sta]A[Sta]-OH)
effect of protease inhibitor on control or VPA-repressed HDAC-2 protein levels ([1]; HEK293T cells): Neither of the protease inhibitors pepstatin A, leupeptin or ALLM had an effect

B1: E3 ubiquitin ligase RLIM (protein)
chain: MENSDSNDKGSGDQSAAQRRSQMDRLDREEAFYQFVNNLSEEDYRLMRDNNLLGTPGESTEEELLRRLQQIKEGPPPQNSDENRGGDSSDDVSNGDSIIDWLNSVRQTGNTTRSGQRGNQSWRAVCRTNPNSGNFRFSLEINVYSNNGSQNSENENEPSARRSSGENVENNSQRQVENPRSESTSARPSRSERNSTEALTEVPPTRGQRRARSRSPDHRRTRARAERSRSPLHPMSEIPRRSHHSISSQTFEHPLVNETEGSSRTRHHVTLRQQISGPELLSRGLFAASGTRNASQGAGSSDTAASGESTGSGQRPPTIVLDLQVRRVRPGEYRQRDSIASRTRSRSQTPNNTVTYESERGGFRRTFSRSERAGVRTYVSTIRIPIRRILNTGLSETTSVAIQTMLRQIMTGFGELSYFMYSDSDSEPTGSVSNRNMERAESRSGRGGSGGGSSSGSSSSSSSSSSSSSSSSSSSSPSSSSGGESSETSSDLFEGSNEGSSSSGSSGARREGRHRAPVTFDESGSLPFLSLAQFFLLNEDDDDQPRGLTKEQIDNLAMRSFGENDALKTCSVCITEYTEGNKLRKLPCSHEYHVHCIDRWLSENSTCPICRRAVLASGNRESVV
in vitro ubiquitination (Ubc8 as E2, RLIM as E3) [11]: the class II HDAC-4 are substrates for Ubc8/RLIM
